Results on twelve compounds are retold here after patent US20260327204A1, “DEGRADERS OF CYCLIN-DEPENDENT KINASE 12/13, COMPOSITIONS, AND USES THEREOF” (ZHEJIANG UNIVERSITY, priority 2023, published 2026).

Test [1] has as its target CDK13 (Homo sapiens, UniProt Q14004). In words: Western blot degradation of CDK13 (Example 3). To be noted: DC50 classes; cell line not given; read-out: CDK13 degradation Activity. The test is classed as cell-based. Further details: degradation of CDK12/13 protein in leukemia cells KASUMI-1, MV4-11, and Jurkat; endogenous in cells. In general terms: Immunoblotting shows a protein as a band on a membrane.

Test [2] concerns the target CDK12 (Homo sapiens, UniProt Q9NYV4). In words: Western blot degradation of CDK12 (Example 3). In kind it is cell-based. Also on record: degradation of CDK12/13 protein in leukemia cells KASUMI-1, MV4-11, and Jurkat; endogenous in cells. As to conditions: DC50 classes; cell line not given; read-out: CDK12 degradation Activity.

Sequence of CDK13 (Q14004 whole entry): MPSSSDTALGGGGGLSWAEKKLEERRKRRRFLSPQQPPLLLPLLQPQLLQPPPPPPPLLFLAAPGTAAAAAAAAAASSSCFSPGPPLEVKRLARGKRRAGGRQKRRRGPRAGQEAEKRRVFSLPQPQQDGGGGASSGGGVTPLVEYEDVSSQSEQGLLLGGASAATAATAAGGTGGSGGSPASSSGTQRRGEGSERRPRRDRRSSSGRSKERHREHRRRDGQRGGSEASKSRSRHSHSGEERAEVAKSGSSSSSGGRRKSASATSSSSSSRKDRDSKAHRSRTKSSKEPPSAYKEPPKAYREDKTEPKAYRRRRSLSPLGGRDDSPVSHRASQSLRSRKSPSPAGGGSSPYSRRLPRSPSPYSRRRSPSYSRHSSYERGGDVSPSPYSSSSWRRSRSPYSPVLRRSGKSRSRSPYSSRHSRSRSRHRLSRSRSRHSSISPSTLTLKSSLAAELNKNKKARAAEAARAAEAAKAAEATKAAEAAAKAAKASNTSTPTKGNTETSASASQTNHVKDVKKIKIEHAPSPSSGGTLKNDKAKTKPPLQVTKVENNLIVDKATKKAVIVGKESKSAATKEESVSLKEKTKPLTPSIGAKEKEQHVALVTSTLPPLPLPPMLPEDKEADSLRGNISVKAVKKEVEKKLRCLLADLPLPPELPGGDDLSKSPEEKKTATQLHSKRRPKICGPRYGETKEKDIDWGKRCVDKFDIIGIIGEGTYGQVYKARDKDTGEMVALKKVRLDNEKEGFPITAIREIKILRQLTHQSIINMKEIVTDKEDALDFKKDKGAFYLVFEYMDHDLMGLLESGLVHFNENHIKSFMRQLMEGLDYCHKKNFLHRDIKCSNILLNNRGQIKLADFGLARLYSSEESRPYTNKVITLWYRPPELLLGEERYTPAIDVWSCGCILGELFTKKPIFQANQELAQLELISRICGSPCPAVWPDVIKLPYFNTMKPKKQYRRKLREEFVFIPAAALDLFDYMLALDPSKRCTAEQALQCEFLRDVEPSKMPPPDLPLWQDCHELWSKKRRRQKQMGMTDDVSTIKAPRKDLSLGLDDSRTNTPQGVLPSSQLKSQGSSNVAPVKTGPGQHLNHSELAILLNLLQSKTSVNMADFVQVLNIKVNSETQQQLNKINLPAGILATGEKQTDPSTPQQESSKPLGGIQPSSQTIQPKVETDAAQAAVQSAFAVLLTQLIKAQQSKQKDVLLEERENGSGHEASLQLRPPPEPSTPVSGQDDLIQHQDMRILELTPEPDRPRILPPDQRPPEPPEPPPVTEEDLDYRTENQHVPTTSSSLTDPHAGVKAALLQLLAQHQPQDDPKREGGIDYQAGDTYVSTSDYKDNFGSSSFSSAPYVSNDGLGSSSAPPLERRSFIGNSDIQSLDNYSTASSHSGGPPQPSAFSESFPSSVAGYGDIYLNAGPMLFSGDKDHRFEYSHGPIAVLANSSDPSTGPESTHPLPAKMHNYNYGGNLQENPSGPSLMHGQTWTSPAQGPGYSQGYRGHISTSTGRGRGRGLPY
Sequence of CDK13 (O75909 whole entry partner): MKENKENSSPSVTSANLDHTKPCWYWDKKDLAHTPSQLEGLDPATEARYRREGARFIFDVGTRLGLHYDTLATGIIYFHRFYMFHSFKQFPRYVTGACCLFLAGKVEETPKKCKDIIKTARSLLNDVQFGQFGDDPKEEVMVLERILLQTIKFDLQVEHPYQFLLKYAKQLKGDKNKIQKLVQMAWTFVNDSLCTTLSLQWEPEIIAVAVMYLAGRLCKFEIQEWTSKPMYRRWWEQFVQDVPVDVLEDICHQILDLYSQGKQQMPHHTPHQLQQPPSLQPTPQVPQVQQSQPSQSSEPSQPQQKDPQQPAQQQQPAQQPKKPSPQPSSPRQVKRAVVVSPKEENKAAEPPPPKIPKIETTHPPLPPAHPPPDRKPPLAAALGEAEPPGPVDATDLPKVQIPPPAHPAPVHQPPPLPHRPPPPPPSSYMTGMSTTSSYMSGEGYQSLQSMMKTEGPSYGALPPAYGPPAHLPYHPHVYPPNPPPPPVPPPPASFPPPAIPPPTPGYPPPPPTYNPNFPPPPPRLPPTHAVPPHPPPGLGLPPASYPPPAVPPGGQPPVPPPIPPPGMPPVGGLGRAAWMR
Sequence of CDK12 (Q9NYV4 whole entry): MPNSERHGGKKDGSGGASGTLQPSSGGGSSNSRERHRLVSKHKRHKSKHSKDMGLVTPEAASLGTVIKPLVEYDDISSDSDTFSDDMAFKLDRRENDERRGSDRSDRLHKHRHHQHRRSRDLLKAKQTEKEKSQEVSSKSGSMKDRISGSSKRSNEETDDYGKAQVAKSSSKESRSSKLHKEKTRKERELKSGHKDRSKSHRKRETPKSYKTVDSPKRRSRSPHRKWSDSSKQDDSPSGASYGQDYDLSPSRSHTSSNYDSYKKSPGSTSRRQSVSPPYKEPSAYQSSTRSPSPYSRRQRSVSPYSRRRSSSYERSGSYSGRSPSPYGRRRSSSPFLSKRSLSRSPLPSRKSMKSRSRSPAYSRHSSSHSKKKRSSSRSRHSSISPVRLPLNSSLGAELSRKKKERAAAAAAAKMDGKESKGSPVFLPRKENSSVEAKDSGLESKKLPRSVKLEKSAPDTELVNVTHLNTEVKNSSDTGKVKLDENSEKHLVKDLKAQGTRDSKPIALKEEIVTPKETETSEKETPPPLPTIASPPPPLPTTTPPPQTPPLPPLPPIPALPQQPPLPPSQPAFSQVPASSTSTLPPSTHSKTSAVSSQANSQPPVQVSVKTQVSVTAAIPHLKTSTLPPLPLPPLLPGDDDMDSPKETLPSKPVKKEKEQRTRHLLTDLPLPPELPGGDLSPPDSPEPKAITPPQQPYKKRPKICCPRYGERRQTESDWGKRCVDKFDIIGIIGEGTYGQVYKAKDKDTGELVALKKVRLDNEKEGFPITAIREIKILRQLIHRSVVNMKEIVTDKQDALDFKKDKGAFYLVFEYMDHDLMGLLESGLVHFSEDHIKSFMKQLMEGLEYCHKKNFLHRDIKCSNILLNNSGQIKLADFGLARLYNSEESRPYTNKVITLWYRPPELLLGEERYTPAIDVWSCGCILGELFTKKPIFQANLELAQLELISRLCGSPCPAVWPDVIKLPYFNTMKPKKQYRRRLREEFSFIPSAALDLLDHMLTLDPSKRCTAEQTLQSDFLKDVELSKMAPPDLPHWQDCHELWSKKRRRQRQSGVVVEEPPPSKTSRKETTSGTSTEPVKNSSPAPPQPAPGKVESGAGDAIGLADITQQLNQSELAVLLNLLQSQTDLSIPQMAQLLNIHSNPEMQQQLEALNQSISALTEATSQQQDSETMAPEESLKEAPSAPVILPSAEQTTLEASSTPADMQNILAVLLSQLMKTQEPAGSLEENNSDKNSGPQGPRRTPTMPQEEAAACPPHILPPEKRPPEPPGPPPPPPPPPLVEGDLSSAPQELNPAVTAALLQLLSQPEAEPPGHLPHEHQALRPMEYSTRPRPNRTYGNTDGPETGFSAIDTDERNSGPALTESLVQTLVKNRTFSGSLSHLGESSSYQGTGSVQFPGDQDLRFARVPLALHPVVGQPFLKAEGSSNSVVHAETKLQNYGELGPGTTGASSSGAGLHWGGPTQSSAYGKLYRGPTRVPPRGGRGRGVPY
Sequence of CDK12 (O75909 whole entry partner): as the sequence (O75909 whole entry partner) above

Consider `CC(=O)N(c1ccc(-c2cnc(N3CCN(CC(=O)N[C@H](C(=O)N4C[C@H](O)C[C@H]4C(=O)N[C@@H](C)c4ccc(-c5scnc5C)cc4)C(C)(C)C)CC3)nc2)cc1)[C@H]1CC[C@H](Nc2ncc3ccccc3n2)CC1` [Formula 148, (2S,4R)-1-((S)-3,3-dimethyl-2-(2-(4-(5-(4-(N-((1R,4R)-4-(quinazolin-2-ylamino)cyclohexyl)acetamido)phenyl)pyrimidin-2-yl)piperazin-1-yl)acetamido)butanoyl)-4-hydroxy-N—((S)-1-(4-(4-methylthiazol-5-yl)phenyl)ethyl)pyrrolidine-2-carboxamide], for which the DC50 in test [1] and in test [2] was below 100 nM throughout.
As for `CC(=O)N(c1ccc(-c2cnn(CC3CN(c4ccc5c(c4)C(=O)N(C4CCC(=O)NC4=O)C5=O)C3)c2)cc1)[C@H]1CC[C@H](Nc2ncc3ccccc3n2)CC1` (stereo partly drawn) [Formula 115, N-(4-(1-((1-(2-(2,6-dioxopiperidin-3-yl)-1,3-dioxoisoindolin-5-yl)azetidin-3-yl)methyl)-1H-pyrazol-4-yl)phenyl)-N-((1R,4R)-4-(quinazolin-2-ylamino)cyclohexyl)acetamide], the DC50 in test [1] and in test [2] was 1000 to 3000 nM in each case.
For the compound `CC(=O)N(c1ccc(N2CCN(C(=O)CNc3ccc4c(c3)C(=O)N(C3CCC(=O)NC3=O)C4=O)CC2)cc1)[C@H]1CC[C@H](Nc2ncc3ccccc3n2)CC1` (stereo partly drawn) [Formula 101, N-(4-(4-((2-(2,6-dioxopiperidin-3-yl)-1,3-dioxoisoindolin-5-yl)aminoacetyl)piperazin-1-yl)phenyl)-N-((1R,4R)-4-(quinazolin-2-ylamino)cyclohexyl)acetamide], the DC50 in test [1] and in test [2] was 1000 to 3000 nM in each case.
`CC(=O)N(c1ccc(-c2ccc(OC3CCN(CC(=O)N[C@H](C(=O)N4C[C@H](O)C[C@H]4C(=O)N[C@@H](C)c4ccc(-c5scnc5C)cc4)C(C)(C)C)CC3)nc2)cc1)[C@H]1CC[C@H](Nc2ncc3ccccc3n2)CC1` [Formula 135, (2S,4R)-1-((S)-3,3-dimethyl-2-(2-(4-((5-(4-(N-((1R,4R)-4-(quinazolin-2-ylamino)cyclohexyl)acetamido)phenyl)pyridin-2-yl)oxy)piperidin-1-yl)acetamido)butanoyl)-4-hydroxy-N—((S)-1-(4-(4-methylthiazol-5-yl)phenyl)ethyl)pyrrolidine-2-carboxamide]: the DC50 in test [1] was in the range of 1000 to 3000 nM; in test [2], 500 to 1000 nM.
Taken in the same sequence, the figures for `CC(=O)N(c1ccc(-c2ccc(N3CCC(C(=O)N[C@H](C(=O)N4C[C@H](O)C[C@H]4C(=O)N[C@@H](C)c4ccc(-c5scnc5C)cc4)C(C)(C)C)CC3)nc2)cc1)[C@H]1CC[C@H](Nc2ncc3ccccc3n2)CC1` [Formula 137, N—((S)-1-((2S,4R)-4-hydroxy-2-(((S)-1-(4-(4-methylthiazol-5-yl)phenyl)ethyl)carbamoyl)pyrrolidin-1-yl)-3,3-dimethyl-1-oxobutan-2-yl)-1-(5-(4-(N-((1R,4R)-4-(quinazolin-2-ylamino)cyclohexyl)acetamido)phenyl)pyridin-2-yl)piperidine-4-carboxamide] were 3000 to 10000 nM and 3000 to 10000 nM.
As for `CC(=O)N(c1ccc(-c2ccc(OCCOCC(=O)N[C@H](C(=O)N3C[C@H](O)C[C@H]3C(=O)N[C@@H](C)c3ccc(-c4scnc4C)cc3)C(C)(C)C)nc2)cc1)[C@H]1CC[C@H](Nc2ncc3ccccc3n2)CC1` [Formula 131, (2S,4R)-1-((S)-3,3-dimethyl-2-(2-(2-((5-(4-(N-((1R,4R)-4-(quinazolin-2-ylamino)cyclohexyl)acetamido)phenyl)pyridin-2-yl)oxy)ethoxy)acetamido)butanoyl)-4-hydroxy-N—((S)-1-(4-(4-methylthiazol-5-yl)phenyl)ethyl)pyrrolidine-2-carboxamide], the DC50 in test [1] and in test [2] was 500 to 1000 nM each time.
`CC(=O)N(c1ccc(-c2cnc(O[C@@H]3CCN(c4ccc5c(c4)C(=O)N(C4CCC(=O)NC4=O)C5=O)C3)nc2)cc1)[C@H]1CC[C@H](Nc2ncc3ccccc3n2)CC1` (stereo partly drawn) [Formula 109, N-(4-(2-(((3R)-1-(2-(2,6-dioxopiperidin-3-yl)-1,3-dioxoisoindolin-5-yl)pyrrolidin-3-yl)oxy)pyrimidin-5-yl)phenyl)-N-((1R,4R)-4-(quinazolin-2-ylamino)cyclohexyl)acetamide]: the DC50 in test [1] and in test [2] was 100 to 500 nM in each case.
`CC(=O)N(c1ccc(-c2cnc(N3C[C@H]4C[C@@H]3CN4CC(=O)N[C@H](C(=O)N3C[C@H](O)C[C@H]3C(=O)N[C@@H](C)c3ccc(-c4scnc4C)cc3)C(C)(C)C)nc2)cc1)[C@H]1CC[C@H](Nc2ncc3ccccc3n2)CC1` [Formula 144, (2S,4R)-1-((S)-3,3-dimethyl-2-(2-((1R,4R)-5-(5-(4-(N-((1r,4S)-4-(quinazolin-2-ylamino)cyclohexyl)acetamido)phenyl)pyrimidin-2-yl)-2,5-diazabicyclo[2.2.1]heptan-2-yl)acetamido)butanoyl)-4-hydroxy-N—((S)-1-(4-(4-methylthiazol-5-yl)phenyl)ethyl)pyrrolidine-2-carboxamide]: the DC50 in test [1] is 100 to 500 nM; in test [2], below 100 nM.
On to `CC(=O)N(c1ccc(-c2cnc(OC3CN(c4ccc5c(c4)C(=O)N(C4CCC(=O)NC4=O)C5=O)C3)nc2)cc1)[C@H]1CC[C@H](Nc2ncc3ccccc3n2)CC1` (stereo partly drawn) [Formula 108, N-(4-(2-((1-(2-(2,6-dioxopiperidin-3-yl)-1,3-dioxoisoindolin-5-yl)azetidin-3-yl)oxy)pyrimidin-5-yl)phenyl)-N-((1R,4R)-4-(quinazolin-2-ylamino)cyclohexyl)acetamide], for which the DC50 in test [1] and in test [2] was 100 to 500 nM in each case.
Consider `CC(=O)N(c1ccc(-c2cnn(C3CN(c4ccc5c(c4)C(=O)N(C4CCC(=O)NC4=O)C5=O)C3)c2)cc1)[C@H]1CC[C@H](Nc2ncc3ccccc3n2)CC1` (stereo partly drawn) [Formula 113, N-(4-(1-(1-(2-(2,6-dioxopiperidin-3-yl)-1,3-dioxoisoindolin-5-yl)azetidin-3-yl)-1H-pyrazol-4-yl)phenyl)-N-((1R,4R)-4-(quinazolin-2-ylamino)cyclohexyl)acetamide], for which the DC50 in test [1] and in test [2] was 3000 to 10000 nM in each case.
With `CC(=O)N(c1ccc(N2CCN(C3CN(c4ccc5c(c4)C(=O)N(C4CCC(=O)NC4=O)C5=O)C3)CC2)cc1)[C@H]1CC[C@H](Nc2ncc3ccccc3n2)CC1` (stereo partly drawn) [Formula 124, N-(4-(4-(1-(2-(2,6-dioxopiperidin-3-yl)-1,3-dioxoisoindolin-5-yl)azetidin-3-yl)piperazin-1-yl)phenyl)-N-((1R,4R)-4-(quinazolin-2-ylamino)cyclohexyl)acetamide], the DC50 in test [1] and in test [2] was 1000 to 3000 nM throughout.
As for `CC(=O)N(c1ccc(-c2cnc(N3CCN(C(=O)N[C@H](C(=O)N4C[C@H](O)C[C@H]4C(=O)N[C@@H](C)c4ccc(-c5scnc5C)cc4)C(C)(C)C)CC3)nc2)cc1)[C@H]1CC[C@H](Nc2ncc3ccccc3n2)CC1` [Formula 146, N—((S)-1-((2S,4R)-4-hydroxy-2-(((S)-1-(4-(4-methylthiazol-5-yl)phenyl)ethyl)carbamoyl)pyrrolidin-1-yl)-3,3-dimethyl-1-oxobutan-2-yl)-4-(5-(4-(N-((1R,4R)-4-(quinazolin-2-ylamino)cyclohexyl)acetamido)phenyl)pyrimidin-2-yl)piperazine-1-carboxamide], the DC50 in test [1] and in test [2] was 3000 to 10000 nM each time.
